Measurements: paper PMC4620045 (Journal of pharmacokinetics and pharmacodynamics, 2015)
Where two headings read alike, the source gives them in different places.

Assays:
[1] = type: in vivo, BALB/c mice; details: male, BALB/c, mouse, iv
[2] = Global PBPK model fitted to mouse plasma and tissue PK data; type: in vivo, mice; details: for Nonspecific binding (NSti): mice, model estimate
[3] = Kidney (renal clearance CLr); fixed to reported GFR value in mice; cited from earlier work
plasma proteins = details: cited from earlier work
[4] = monkeys; cited from earlier work
[5] = tested on: enzymes responsible for its elimination; details: cited from earlier work

AUC(0-inf) ([1]; bone, 0.25 mg/kg): 23.7 µM·h
Kp ([1]; bone, 0.25 mg/kg): 26.9
half-life ([1]; bone, 0.25 mg/kg): 277 h
AUC(0-inf) ([1]; bone, 1 mg/kg): 27.2 µM·h
Kp ([1]; bone, 1 mg/kg): 1.4
half-life ([1]; bone, 1 mg/kg): 173 h
AUC(0-inf) ([1]; kidney, 0.25 mg/kg): 24.7 µM·h
half-life ([1]; kidney, 0.25 mg/kg): 59 h
AUC(0-inf) ([1]; kidney, 1 mg/kg): 180 µM·h
half-life ([1]; kidney, 1 mg/kg): 204 h
AUC(0-inf) ([1]; liver, 0.25 mg/kg): 17 µM·h
half-life ([1]; liver, 0.25 mg/kg): 69 h
AUC(0-inf) ([1]; liver, 1 mg/kg): 33.3 µM·h
half-life ([1]; liver, 1 mg/kg): 105 h
AUC(0-inf) ([1]; lung, 0.25 mg/kg): 39.3 µM·h
Kp ([1]; lung, 0.25 mg/kg): 44.7
half-life ([1]; lung, 0.25 mg/kg): 178 h
AUC(0-inf) ([1]; lung, 1 mg/kg): 60.9 µM·h
Kp ([1]; lung, 1 mg/kg): 3.1
half-life ([1]; lung, 1 mg/kg): 133 h
AUC(0-inf) ([1]; muscle, 0.25 mg/kg): 5.7 µM·h
Kp ([1]; muscle, 0.25 mg/kg): 6.4
half-life ([1]; muscle, 0.25 mg/kg): 204 h
AUC(0-inf) ([1]; muscle, 1 mg/kg): 17.3 µM·h
Kp ([1]; muscle, 1 mg/kg): 0.9
half-life ([1]; muscle, 1 mg/kg): 112 h
AUC(0-inf) ([1]; plasma, 0.25 mg/kg): 0.9 µM·h
Kp ([1]; plasma, 0.25 mg/kg): 1
half-life ([1]; plasma, 0.25 mg/kg): 96 h
AUC(0-inf) ([1]; plasma, 1 mg/kg): 19.4 µM·h
Kp ([1]; plasma, 1 mg/kg): 1
half-life ([1]; plasma, 1 mg/kg): 267 h
AUC(0-inf) ([1]; spleen, 0.25 mg/kg): 103 µM·h
Kp ([1]; spleen, 0.25 mg/kg): 117
half-life ([1]; spleen, 0.25 mg/kg): 248 h
AUC(0-inf) ([1]; spleen, 1 mg/kg): 107 µM·h
Kp ([1]; spleen, 1 mg/kg): 5.5
half-life ([1]; spleen, 1 mg/kg): 131 h
AUC(0-inf) ([1]; whole blood, 0.25 mg/kg): 46.4 µM·h
Kp ([1]; whole blood, 0.25 mg/kg): 52.8
half-life ([1]; whole blood, 0.25 mg/kg): 182 h
AUC(0-inf) ([1]; whole blood, 1 mg/kg): 92 µM·h
Kp ([1]; whole blood, 1 mg/kg): 4.8
half-life ([1]; whole blood, 1 mg/kg): 173 h
Nonspecific binding (NSti) ([2]; Bone): 1.06
Nonspecific binding (NSti) ([2]; Erythrocyte): 7.57
Nonspecific binding (NSti) ([2]; Kidney): 9.60
Nonspecific binding (NSti) ([2]; Liver): 1.54
Nonspecific binding (NSti) ([2]; Lung): 2.54
Nonspecific binding (NSti) ([2]; Muscle): 1.17
Nonspecific binding (NSti) ([2]; Remainder compartment): 96.76
Nonspecific binding (NSti) ([2]; Spleen): 3.68
clearance ([2]; male, BALB/c, mouse, liver, intravenous): 0.0063 mL/min
Structure (SMILES): CC(C)C[C@H](NC(=O)[C@H](Cc1ccccc1)NC(=O)c1cnccn1)B(O)O [Bortezomib]
clearance [3]: 0.28 mL/min
Plasma protein unbound fraction (fu) (plasma proteins; fixed in PBPK model): 0.17
Binding to plasma proteins (plasma proteins; linear binding at therapeutic concentrations): approximately 83%
Renal clearance contribution to elimination [4]: approximately 25%
Induction or inhibition of enzymes responsible for its elimination [5]: not an inducer or inhibitor
